Target: ROCK2 (human) (UniProt O75116)
Assay: Assessment of ROCK2 Kinase Activity

Sequence of ROCK2 (human) (O75116 whole entry, looked up): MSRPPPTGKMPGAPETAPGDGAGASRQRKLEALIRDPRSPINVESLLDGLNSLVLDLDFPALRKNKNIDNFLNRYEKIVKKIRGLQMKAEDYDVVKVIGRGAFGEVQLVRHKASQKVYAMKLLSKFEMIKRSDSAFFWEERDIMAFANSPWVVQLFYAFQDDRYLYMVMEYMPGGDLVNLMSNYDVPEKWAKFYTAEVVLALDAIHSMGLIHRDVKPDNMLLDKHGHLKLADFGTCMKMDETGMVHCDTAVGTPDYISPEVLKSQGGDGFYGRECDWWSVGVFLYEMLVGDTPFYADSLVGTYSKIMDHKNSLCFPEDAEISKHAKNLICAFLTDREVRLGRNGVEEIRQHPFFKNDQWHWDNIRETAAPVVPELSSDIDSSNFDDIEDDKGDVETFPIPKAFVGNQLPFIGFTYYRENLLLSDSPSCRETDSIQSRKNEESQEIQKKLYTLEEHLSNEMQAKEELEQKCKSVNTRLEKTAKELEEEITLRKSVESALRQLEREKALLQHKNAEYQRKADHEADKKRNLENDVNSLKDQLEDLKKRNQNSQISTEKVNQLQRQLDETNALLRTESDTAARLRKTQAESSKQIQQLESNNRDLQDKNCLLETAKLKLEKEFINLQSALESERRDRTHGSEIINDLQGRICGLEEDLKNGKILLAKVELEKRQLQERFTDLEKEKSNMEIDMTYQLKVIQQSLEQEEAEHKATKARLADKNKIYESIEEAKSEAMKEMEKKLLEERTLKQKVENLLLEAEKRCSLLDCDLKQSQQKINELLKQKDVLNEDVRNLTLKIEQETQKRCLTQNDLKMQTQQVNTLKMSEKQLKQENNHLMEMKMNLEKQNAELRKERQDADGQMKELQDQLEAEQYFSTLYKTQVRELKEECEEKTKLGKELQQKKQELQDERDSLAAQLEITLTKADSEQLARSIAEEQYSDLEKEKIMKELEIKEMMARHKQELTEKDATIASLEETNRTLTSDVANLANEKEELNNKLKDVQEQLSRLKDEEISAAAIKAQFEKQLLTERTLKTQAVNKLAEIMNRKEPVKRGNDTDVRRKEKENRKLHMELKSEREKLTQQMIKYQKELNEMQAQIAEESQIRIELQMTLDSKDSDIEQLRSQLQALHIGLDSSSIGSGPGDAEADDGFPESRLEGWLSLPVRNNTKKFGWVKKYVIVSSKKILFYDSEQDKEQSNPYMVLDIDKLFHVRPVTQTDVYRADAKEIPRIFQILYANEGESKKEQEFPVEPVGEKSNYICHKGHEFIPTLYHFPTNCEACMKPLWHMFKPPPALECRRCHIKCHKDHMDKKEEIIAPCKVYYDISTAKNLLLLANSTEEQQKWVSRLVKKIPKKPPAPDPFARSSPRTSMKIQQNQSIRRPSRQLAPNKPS

Compound | IC50
Cc1cc2c(=O)[nH]ccc2cc1OC[C@@H]1CCNC1 | ≤ 1 µM
C[C@@H](N)C(=O)N1CCC(Oc2cc3cc[nH]c(=O)c3cc2Cl)CC1 | ≤ 1 µM
Cc1cc2c(=O)[nH]ccc2cc1OC1CCCNCC1 (configuration not stated) | ≤ 1 µM
N[C@@H](Cc1ccc(Cl)cc1)C(=O)N1CCC(Oc2cc3cc[nH]c(=O)c3cc2Cl)CC1 | ≤ 1 µM
O=c1[nH]ccc2cc(O[C@@H]3CCN(Cc4ccccc4)C3)c(Cl)cc12 | ≤ 1 µM
O=C([C@@H]1CCCN1)N1CCC(Oc2cc3cc[nH]c(=O)c3cc2Cl)CC1 | ≤ 1 µM
O=c1[nH]ccc2cc(OC3CCCNCC3)c(Cl)cc12 (configuration not stated) | ≤ 1 µM
CN(C)CC(=O)N1CCC(Oc2cc3cc[nH]c(=O)c3cc2Cl)CC1 | ≤ 1 µM
NCC(=O)N1CCC(Oc2ccc3c(=O)[nH]ccc3c2)CC1 | ≤ 1 µM
Cc1cc2c(=O)[nH]ccc2cc1O[C@H]1CCNC1 | ≤ 1 µM
CCCNC(=O)CN1CCC(Oc2cc3cc[nH]c(=O)c3cc2Cl)CC1 | ≤ 1 µM
O=c1[nH]ccc2cc(OC3CNC3)c(Cl)cc12 | ≤ 1 µM

Source: the Kinase Knowledgebase extract (Sharma et al. 2016)
